The text below walks through data of patent publication US5622725A, “Wound disinfection and repair” (Alcide Corporation, priority 1996, dated 1997).

Data set [1] concerns mammalian tissue. The data set is described as follows: Tolerance by mammalian tissue (eye irrigant, udder infusion, uterine douche). To be noted: 50 ppm. The class given is in vivo, rabbits, cow, mares. An excerpt:
The materials in the table which are as effective as the 50 ppm ClO2 solution are ones that would be considered to be too irritating and/or corrosive for use as an irrigant in a peritoneal cavity.

In data set [2] the test system is Staphylococcus epidermidis biofilms. The data set is described as follows: Sterilization of S. epidermidis biofilms, minimal exposure time at 22° C. (supravital dye, confirmed by culture). The class given is cell-based. Particulars: 22° C. From the text:
This example compares and contrasts the cidal effectiveness of compositions of the invention with other disinfectants and antibiotics against Staphylococcus epidermidis biofilms, which are frequently observed on the surface of C.A.P.D. peritoneal catheters even in the absence of peritonitis or exit site infections.
A strain of S. epidermidis with characteristic abundant slime production, and derived from a human source, is used to prepare the biofilms. The isolate is fully sensitive in the fluid phase to all commonly used antibiotics as assayed using routine test methods. Aliquots of the bacteria are frozen at -70° C. in 10% glycerol broth or propagated on 5% defibrinated horse blood agar. Standardized biofilms are formed on soda glass microscope slides or slides coated with Silastic® (the basic material of indwelling catheters; see Cecil's, cited above, on page 542), placed in Petri dishes containing 20 ml of tryptone soya broth (Oxoid Ltd., England), seeded with 10^4 cfu S. epidermidis and incubated for 18 hours at 37° C. Reproducible uniform and confluent S. epidermidis biofilms of minimal density are formed.
Antibiotic activity against S. epidermidis biofilms are determined using a supravital dye which acts as an electron acceptor in coupled oxidative systems in biofilm bacteria. The method allows the bacteria to be examined undisturbed within the biofilm matrix in situ. Briefly stated, the biofilms are exposed to antibiotic solutions and incubated at […] for varying periods of time. Positive (viable, 1% peptone water) and negative (sterilized, 4% formol-peptone) controls are included in all experiments. After a designated exposure at 22° C. for varying periods of time between 15 seconds to 6 hours, the biofilms are rinsed twice in sterile water and allowed to drain. They are then placed in a flat agar medium incorporating substantive dyes and incubated at 37° C. for 4 hours, then 24 hours. Viability is assessed visually by a change in dye color and confirmed after 24 hours by mechanically scraping and subsequently culturing the biofilms. Sterilization is indicated by the absence of color changes and confirmed by culture of both intact and mechanically fragmented biofilms. Inhibition of growth is indicated by a lack of color change after a 4-hour incubation and confirmed by a positive color change by 24 hours.

In data set [3] the test system is Streptococcus species. The experiment in a line: Cidal activity of 50 ppm ClO2. The class given is cell-based. To be noted: within one minute. An excerpt:
(§1) This invention provides a quick-acting, broad-spectrum antimicrobial, that is not absorbed systemically because it is rapidly eliminated or degraded. The inventive compositions have the requisite, extended range of antimicrobial action, rapidity of kill and degradability for this application. […] ClO2 reacts with oxidizable bonds of these organisms and other organic matter and, as a result, is reduced to lower oxidation states: initially chlorite and ultimately chloride. The latter is present at high levels in the body (ca. 0.5% of cellular fluids), so that the small amount formed by ClO2 degradation (in the parts per million range) would disappear into that pool. Compatability of these disinfecting peritoneal flush solutions is also appropriate, since the ClO2 is generated or dissolved in solutions which have osmotic pressures that are suitably isotonic with cellular fluids.

Data set [4] deals with Staphylococcus species. The data set is described as follows: Cidal activity of 50 ppm ClO2. The class given is cell-based. Particulars: within one minute.
Description: as §1

Data set [5] has as its system Escherichia coli and other coliforms. The experiment in a line: Cidal activity of 50 ppm ClO2. The format is cell-based. Particulars: within one minute.
Description: as §1

The test system of data set [6] is Pseudomonas aeruginosa. The experiment in a line: Cidal activity of 50 ppm ClO2. The format is cell-based. To be noted: within one minute.
Description: as §1

In data set [7] the test system is Klebsiella pneumoniae. The data set is described as follows: Cidal activity of 50 ppm ClO2. The format is cell-based. To be noted: within one minute.
Description: as §1

Data set [8] has as its system Bacteroides species. The experiment in a line: Cidal activity of 50 ppm ClO2. The class given is cell-based. To be noted: within one minute.
Description: as §1

The test system of data set [9] is cows' udders. The experiment in a line: Infusion into cows' udders, immune response. The class given is in vivo, cow. To be noted: 350 ppm in buffered saline. An excerpt: It is an advantage of the invention that solutions containing fairly significant levels of ClO2 are particularly well tolerated by tissues. […] ClO2 is capable of being reduced to lower oxidation states, such as chlorite and chloride, upon contact with organic materials, but is less reactive than, for example, hypochlorite, and a volume of ClO2 -containing saline is expected to retain significant antimicrobial activity when used to flush out organic debris from an incised area. Appropriate use levels of ClO2 will vary, depending on the amount of organic detritus in the site, but generally concentrations of about 5 to 250 ppm in approximately isotonic solution can be used with good effect.

Data set [10] is described as follows: Free radical signal by luminometer (modified luminol assay). To be noted: One hundred-fold dilutions, within one minute after mixing. The method, then: ClO2 (75 ppm) is generated by mixing 0.25% chlorite and 1.4% lactic acid. One hundred-fold dilutions are tested within one minute after mixing using electron paramagnetic spectroscopy (ESR) and a LKB luminometer.
The luminometer assay utilizes a modified luminol assay for radical detection. Luminol (LH2) reacts with free radicals (R·) as follows: […]
LOO^- →L2 + AP* (aminophthalate dianion, active state)
The pH optimum for the reaction is 10 to 12. The assay is standardized with an enzymatic system in which the generation of free radicals could be quantified by measuring generation of ·O2^-, obtained with the following reaction, […]
hypoxanthine+xanthine oxidase→urate+·O2^- by the reduction of ferricytochrome C.

Data set [11] relates to lactobacilli, streptococci, coliforms, Klebsiella species, Enterobacter species, Bacteroides species, clostridia and eubacteria. The data set is described as follows: Broad-spectrum antimicrobial activity. Particulars: aerobic and anaerobic. The format is cell-based. An excerpt: In one embodiment, the present invention is directed to the use of effective amounts of chlorine dioxide as a peritoneal cavity irrigant. The enteric organisms which enter the peritoneal cavity through contamination by gastrointestinal contact, whether by physical trauma or during surgery, are all susceptible to the cidal effects of chlorine dioxide, which is a broad-spectrum antimicrobial. […] However, as mentioned in the Introduction, addition of antibiotics to the irrigating solution has not provided any additional benefit (Hau and Nishikawa, cited above), and it is presumed that the peritoneal irrigation derives from its mechanical effect. The ineffectivenss of local antibiotic solutions has been surprising to researchers, since the antibiotics that have been used were capable of in vitro inhibition of the bacterial species present in the peritoneal cavity. It may be that the lack of effect was attributable to the brevity of contact of the antibiotic with the organisms, since usual flush times approximate five minutes or less in duration, which would be too short for significant cidal action to occur.

Take `[O][Cl+][O-]` [ClO2, chlorine dioxide]: the “tolerance by mammalian tissue” value in data set [1] is given as “well tolerated by mammalian tissue”. The “Exposure Time (22° C.) for Film Sterilization” value in data set [2] was 5 s. Moreover, the kill in data set [3], in data set [4], in data set [5], in [6], in [7] and in data set [8] was 6 logs/ml in each case. Further, the “safety of infusion / immune response” value in data set [9] is reported as “safely infusable into cows' udders without stimulation of any immune response”. The free radical signal result in data set [10] is “A strong free radical signal is generated”. The “demonstrated activity against organisms” value in data set [11] is “demonstrated activity against all relevant organisms, both aerobic and anaerobic”.
